Source: article PMC5807214 (ACS infectious diseases, 2017)

What was measured:
[1] = target: T1, MexG-HAWA (Pseudomonas aeruginosa, UniProt Q9HWH6, H95A/W98A); assay: intrinsic tryptophan fluorescence quenching; type: binding
T1 sequence (Q9HWH6 1-148 H95A/W98A): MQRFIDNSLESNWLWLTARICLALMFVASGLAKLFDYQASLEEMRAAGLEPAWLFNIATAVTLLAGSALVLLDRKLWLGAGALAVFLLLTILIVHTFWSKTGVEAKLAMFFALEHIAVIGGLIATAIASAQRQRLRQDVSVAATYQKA

[2] = target: MexG (Pseudomonas aeruginosa, UniProt Q9HWH6); assay: intrinsic tryptophan fluorescence quenching; type: binding

## Cn1c2cccc(=O)c-2nc2ccccc21 [pyocyanin]
[1]
  Kd: ~7 µM
[2]
  Kd: ~0.6 µM
